The record followed here is patent US9668481B2, “Triazole derivatives” (priority 2013, dated 2017).

SMILES strings stand for the structures. Like-named read-outs stand apart in the source and are kept apart here.

By LogP is commonly meant the decadic logarithm of the partition coefficient of the neutral form, usually between octanol and water. A high value points to a more lipophilic compound.

The test system of one series is Botrytis cinerea. Briefly: In vivo preventive test on Botrytis cinerea (grey mould). The settings on record: 500 ppm of active ingredient; gherkin plants, preventive spray; evaluated 4 to 5 days after inoculation. As for the experimental part: The young plants of gherkin are treated by spraying the active ingredient prepared as described above. Control plants are treated only with an aqueous solution of acetone/Dimethyl sulfoxide/Tween®. After 24 hours, the plants are contaminated by spraying the leaves with an aqueous suspension of Botrytis cinerea spores. The contaminated gherkin plants are incubated for 4 to 5 days at 17° C. and at 90% relative humidity.

The next series has as its system Puccinia recondita. Briefly: In vivo preventive test on Puccinia recondita (brown rust on wheat). The settings on record: 500 ppm of active ingredient; wheat plants, preventive spray; evaluated 11 days after inoculation. As for the experimental part: The young plants of wheat are treated by spraying the active ingredient prepared as described above. Control plants are treated only with an aqueous solution of acetone/Dimethyl sulfoxide/Tween®. After 24 hours, the plants are contaminated by spraying the leaves with an aqueous suspension of Puccinia recondita spores.

For series [1], the system named is Pyricularia oryzae. Format: in vivo. The settings on record: 500 ppm of active ingredient; rice plants, preventive spray; evaluated 6 days after inoculation.
The next series relates to Septoria tritici. Briefly: In vivo preventive test on Septoria tritici (leaf spot on wheat). The settings on record: 500 ppm of active ingredient; wheat plants, preventive spray; evaluated 24 days after inoculation. As to the method:
The young plants of wheat are treated by spraying the active ingredient prepared as described above. Control plants are treated only with an aqueous solution of acetone/Dimethyl sulfoxide/Tween®. After 24 hours, the plants are contaminated by spraying the leaves with an aqueous suspension of Septoria tritici spores.

In another series the test system is Sphaerotheca fuliginea. Briefly: In vivo preventive test on Sphaerotheca fuliginea (powdery mildew on cucurbits). To be noted: 500 ppm of active ingredient; gherkin plants, preventive spray; evaluated 15 days after inoculation. As for the experimental part:
The young plants of gherkin are treated by spraying the active ingredient prepared as described above. Control plants are treated only with an aqueous solution of acetone/Dimethyl sulfoxide/Tween®. After 24 hours, the plants are contaminated by spraying the leaves with an aqueous suspension of Sphaerotheca fuliginea spores.

For the next series, the system named is Uromyces appendiculatus. Briefly: In vivo preventive test on Uromyces appendiculatus (bean rust). To be noted: 500 ppm of active ingredient; bean plants, preventive spray; evaluated 11 days after inoculation. As for the experimental part: The young plants of bean are treated by spraying the active ingredient prepared as described above. Control plants are treated only with an aqueous solution of acetone/Dimethyl sulfoxide/Tween®. After 24 hours, the plants are contaminated by spraying the leaves with an aqueous suspension of Uromyces appendiculatus spores.

For series [2], the system named is Blumeria graminis fsp. hordei. Briefly: Blumeria test (barley)/preventive. Format: in vivo. The settings on record: 500 ppm of active ingredient, preventive, evaluated 7 days after inoculation. As for the experimental part: (§1) Solvent: 49 parts by weight of N,N-dimethylacetamide Emulsifier: 1 part by weight of alkylaryl polyglycol ether To produce a suitable preparation of active compound, 1 part by weight of active compound or active compound combination is mixed with the stated amounts of solvent and emulsifier, and the concentrate is diluted with water to the desired concentration. To test for preventive activity, young plants are sprayed with the preparation of active compound or active compound combination at the stated rate of application. After the spray coating has been dried, the plants are dusted with spores of Blumeria graminis fsp. hordei. The plants are placed in the greenhouse at a temperature of approximately 18° C. and a relative atmospheric humidity of approximately 80% to promote the development of mildew pustules.

The subject of another series is Fusarium culmorum. Briefly: Fusarium culmorum-test (wheat)/preventive. The class given is in vivo. To be noted: 500 ppm of active ingredient, preventive, evaluated 5 days after inoculation. As to the method: Solvent: 49 parts by weight of N,N-dimethylacetamide
Emulsifier: 1 part by weight of alkylaryl polyglycol ether
To produce a suitable preparation of active compound, 1 part by weight of active compound or active compound combination is mixed with the stated amounts of solvent and emulsifier, and the concentrate is diluted with water to the desired concentration.
To test for preventive activity, young plants are sprayed with the preparation of active compound or active compound combination at the stated rate of application. After the spray coating has been dried, the plants are slightly injured by using a sandblast and afterwards they are sprayed with a conidia suspension of Fusarium culmorum.
The plants are placed in the greenhouse under a translucent incubation cabinet at a temperature of approximately 22° C. and a relative atmospheric humidity of approximately 100%.
The test is evaluated 5 days after the inoculation. 0% means an efficacy which corresponds to that of the untreated control, while an efficacy of 100% means that no disease is observed.

In a further series the test system is Fusarium graminearum. The class given is in vivo. To be noted: 500 ppm of active ingredient; barley, preventive; evaluated 5 days after inoculation.
Series [3] deals with Fusarium nivale (var. majus). Briefly: Fusarium nivale (var. majus)-test (wheat)/preventive. Format: in vivo. To be noted: 500 ppm of active ingredient, preventive, evaluated 5 days after inoculation. As for the experimental part:
as §1, with “slightly injured by using a sandblast and afterwards they are sprayed” for “dusted”, “a conidia suspension” for “spores”, “Fusarium nivale (var. majus).” for “Blumeria graminis fsp. hordei. The plants are placed in the greenhouse at a temperature of approximately 18° C. and a relative atmospheric humidity of approximately 80% to promote the development of mildew pustules.”

The subject of another series is Leptosphaeria nodorum. Briefly: Leptosphaeria nodorum test (wheat)/preventive. To be noted: 500 ppm of active ingredient, preventive, evaluated 8 days after inoculation. Format: in vivo. As to the method:
as §1, with “sprayed” for “dusted”, “a spore suspension” for “spores”, “Leptosphaeria nodorum. […]” for “Blumeria graminis fsp. hordei.”, “22°” for “18°”, “80%.” for “80% to promote the development of mildew pustules.”

The next series relates to Phakopsora pachyrhizi. Briefly: Phakopsora test (soybeans)/preventive. The class given is in vivo. The settings on record: 100 ppm of active ingredient, preventive, evaluated 7 days after inoculation.
Another series concerns Podosphaera leucotricha. Briefly: Podosphaera test (apples)/preventive. The class given is in vivo. To be noted: 100 ppm of active ingredient, preventive, evaluated 10 days after inoculation. As for the experimental part:
(§2) Solvent: 24.5 parts by weight of acetone • 24.5 parts by weight of dimethylacetamide Emulsifier: 1 part by weight of alkylaryl polyglycol ether To produce a suitable preparation of active compound, 1 part by weight of active compound is mixed with the stated amounts of solvent and emulsifier, and the concentrate is diluted with water to the desired concentration. To test for preventive activity, young plants are sprayed with the preparation of active compound at the stated rate of application. After the spray coating has dried on, the plants are inoculated with an aqueous spore suspension of the causal agent of apple mildew (Podosphaera leucotricha). The plants are then placed in a greenhouse at approximately 23° C. and a relative atmospheric humidity of approximately 70%.

The test system of series [4] is Pyricularia oryzae. Format: in vivo. The settings on record: 500 ppm of active ingredient; rice, preventive; evaluated 8 days after inoculation.
Another series deals with Venturia inaequalis. Briefly: Venturia test (apples)/preventive. Format: in vivo. The settings on record: 100 ppm of active ingredient, preventive, evaluated 10 days after inoculation. As for the experimental part:
as §2, with “After the spray coating has dried on, the plants are inoculated with an aqueous spore suspension of the causal agent of apple mildew (Podosphaera leucotricha).” left out, “21°” for “23°”, “90%.” for “70%.”

`CC(C)(C)C(O)(Cc1cccnc1Cl)Cn1cncn1` (centres unmarked) [Example I-3]: the Eff. % stood at 100% with Botrytis cinerea; 97% with Puccinia recondita; 88% in the series on Pyricularia oryzae [1]; 100% with Septoria tritici; 100% in the series on Sphaerotheca fuliginea; 100% with Uromyces appendiculatus. Further, the Eff. % (in series [2]; in the series with Fusarium culmorum; in the series with Fusarium graminearum; in series [3]; in the series with Leptosphaeria nodorum; in the series on Phakopsora pachyrhizi) was 100% in each case. Besides, the Eff. % in the series with Podosphaera leucotricha stood at 100%; in the series on Pyricularia oryzae [4], 75%; in the series on Venturia inaequalis, 100%. Moreover, the LogP by setting is: (pH 2.7) 1.94; (pH 7.8) 1.90.
